Measurements: patent US8455443B2, “Methods of use of skin wound healing compositions” (University of Southern California, priority 2009, dated 2013)

What was measured:
HKC migration = experiment: in vitro pro-motility (cell migration) activity of hsp90α and its fragments, FIG. 1; assay type: cell-based, human; details: for activity on cell migration: relative to full length hsp90α
Protocol: FIG. 1 contains a list of amino acid sequences that were tested for in vitro efficacy as compared to a control medium. The amino acid sequences are identified in FIG. 1 as follows:
Therefore, hsp90α promotes HKC migration mainly through its middle and the carboxyl domains, consistent with their surface location in hsp90α.
However, as can also be seen in FIG. 1, not all of the full hsp90α protein or the entire middle domain and charged portion of hsp90α protein is necessary to promote wound healing. […] Thus, the unnecessary portions of hsp90α need not be included in a composition for wound healing, thereby allowing a composition to be more efficacious per weight of active wound healing agent. Moreover, instead of relying on complicated isolation and extraction methods to obtain the hsp90α protein or the middle domain plus charged portion of hsp90α protein, more inexpensive and conventional methods of synthesis may be employed to obtain the lower chain length polypeptide chains.

[1] = test system: 1 cm×1 cm full-thickness excision wound on the back of nude mice; experiment: full-thickness excision skin wound healing in nude mice, topical treatment; assay type: in vivo; details: for wound sizes: n=10 per group
Protocol: 100 μg F-3 fragments in 100 μl of 10% Carboxymethylcellulose cream and the cream alone was topically applied to the 1 cm×1 cm wound on the back of nude mice daily for 5 days, and wounds were analyzed every two days.
The pharmaceutical 100 μl of 10% carboxymethylcellulose cream (Sterile) is mixed in and the 1 cm×1 cm wound on the back of a nude mouse is topically covered. Following this treatment, the wound is covered with a few antibiotics and bandi and the bandi are fixed by rolling the mouse with coban. The F-3 compound mixture is then added every day for up to five days and the wound is analyzed every two days.
To prepare mice for topical treatment of F-3, 1.0-cm×1.0-cm full-thickness excision wounds were made by lifting the skin with forceps and removing full thickness skin with a pair of scissors on the mid-back of 8 to 10 week old mice. The wounds were topically covered by 100 μl 10% carboxymethylcellulose either without (as a control) or with 300 μg recombinant F-3 compound. The wound area was then covered with Band-Aid and Coban, a self-adherent wrap, to prevent desiccation. Only one dose of F-3 compounds was administered to the wound. To measure the wound area, standardized digital photographs were taken of the wounds at 4, 6, 8, 11, 13 and 15 days post-wounding and the open wound areas were determined with an image analyzer (AlphaEase FC version 4.1.0, Alpha Innotech Corporation). Percentage of wound area was defined by comparing areas of healing wounds to those of the original wounds. The Student T test was used for the statistical analysis. All animal studies were conducted using protocols approved by the University of Southern California Institutional Animal Use Committee.
A 1.0-cm^2 (lcm×lcm) square full-thickness excision wound was made on the mid-back of 8 to 10 week old athymic nude mice and the pharmaceutical composition of F-3 was applied topically daily for 5 days (n=10 mice per group). (A) Representative day 4, 6, 8, 11, 13 and 15 wounds are shown. […] (B) Mean±SD wound size measurements at day 4, 6, 8, 11, 13 and 15 post-wounding (n=10 mice for each group). […]

For “EEKEDKEEEKEKEEKESEDKPEIEDVGSDEEEEKKDGDKKKKKKIKEKYIDQEE (listed as Homo sapiens) [F-5, hsp90α fragment having 54 amino acid units from amino acid number 236 to 289]”, the “activity on cell migration” value (HKC migration) was roughly 100%.
“F-3: fragment of hsp90α consisting of 115 amino acid units, from amino acid number 236 to 350” was tested, and the “activity on cell migration” value (HKC migration) was roughly 100%, the “closure of the wounds” value ([1]; 100 μg in 100 μl 10% carboxymethylcellulose cream, topical, daily for 5 days, day 4, 6, 8, 11, 13, 15, vs cream control, FIGS. 2A-2F) was “significantly accelerated closure of the wounds” and the wound sizes ([1]; F-3 vs 40 μg PDGF-BB (Regenerex) for 5 days, day 0, 5, 7, 10, 12, FIGS. 3A-3E) was “significantly reduced”. The wound sizes ([1]; athymic nude mice, topical daily for 5 days, day 4, 6, 8, 11, 13, 15, vs cream alone) was “significantly reduced”.
In the case of “WT hsp90α: the full-length (WT) hsp90α protein”, the pro-motility activity (HKC migration; in comparison to the control medium) is reported as “remarkable pro-motility activity” and the “activity on cell migration” value (HKC migration) is reported as 100%.
